Source: patent US20030195191A1, “N-sulfonyl hydroxamic acid derivatives as inhibitors of cd23” (priority 2000, published 2003)

Biological target: T1, human recombinant collagenase (Homo sapiens, UniProt P03956)
T1 construct: made in house; host or cells: E. coli
T1 sequence (P03956 100-469): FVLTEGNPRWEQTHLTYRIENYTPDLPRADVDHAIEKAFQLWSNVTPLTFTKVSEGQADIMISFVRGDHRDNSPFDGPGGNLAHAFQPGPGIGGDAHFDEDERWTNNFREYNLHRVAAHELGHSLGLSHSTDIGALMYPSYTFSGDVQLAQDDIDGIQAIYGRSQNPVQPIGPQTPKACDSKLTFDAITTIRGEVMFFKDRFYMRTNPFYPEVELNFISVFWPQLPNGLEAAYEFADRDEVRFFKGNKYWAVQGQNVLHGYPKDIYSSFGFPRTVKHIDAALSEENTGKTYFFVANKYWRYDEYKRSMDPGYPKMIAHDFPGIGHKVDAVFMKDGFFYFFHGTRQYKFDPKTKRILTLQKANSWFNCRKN
Experiment: Collagenase inhibition assay
Format: biochemical
Settings: 37° C., 18 h, acetylated 3H type 1 bovine collagen
Procedure: Procedure 2: The Ability of Test Compounds to Inhibit Collagenase was Investigated Using the Following Procedure.
Collagenase Inhibition Assay:
The potency of compounds to act as inhibitors of collagenase was determined by the method of Cawston and Barrett (Anal. Biochem. 99, 340-345, 1979), hereby incorporated by reference, whereby a 1 mM solution of the inhibitor being tested or dilutions thereof, was incubated at 37° C. for 18 h with collagen and human recombinant collagenase, from synovial fibroblasts cloned, expressed and purified from E. Coli, (buffered with 150 mM Tris, pH 7.6, containing 15 mM calcium chloride, 0.05% Brij 35, 200 mM sodium chloride and 0.02% sodium azide). The collagen was acetylated ^3H type 1 bovine collagen prepared by the method of Cawston and Murphy (methods in Enzymology 80, 711,1981) The samples were centrifuged to sediment undigested collagen and an aliquot of the radioactive supernatant removed for assay on a scintillation counter as a measure of hydrolysis. The collagenase activity in the presence of 1 mM inhibitor, or dilution thereof, was compared to activity in a control devoid of inhibitor and the results reported as that concentration effecting 50% of the collagenase (IC50).

SMILES: O=C(NO)[C@H]1CCCCN1S(=O)(=O)Cc1ccc2ccccc2c1 [Example 2, (R)-1-(Naphthalen-2-ylmethanesulfonyl)piperidine-2-carboxylic Acid N-hydroxyamide]
- IC50: > 10 µM
